Laboratory results from the supplement of paper PMC10307832.

Legend:
Assay in all cases: relative viability (nuclei count vs DMSO), 5 days (fraction); higher = more cells survive
[1] = compound: CN[C@@H]1C[C@H]2O[C@@](C)([C@@H]1OC)n1c3ccccc3c3c4c(c5c6ccccc6n2c5c31)C(=O)NC4 [Staurosporine] + COc1cccc2cc(-c3nc([C@H]4CC[C@H](C(=O)O)CC4)n4ncnc(N)c34)[nH]c12 [OSI-027] (partner 0.5 µM)
How it was run: (§1)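 Lung cancer cell lines were pin-tool dosed in 1536-well plates on the day after seeding, with either a lone drug or a fixed anchor-drug dose plus five library-drug doses (not always all listed) in √10 steps. Nuclei were counted on 4× images after 5 days. Relative viability is the ratio of treated-well to vehicle-well nuclei counts, with each value a median of duplicate plates.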

[2] = compound: CC1=C(CC(=O)O)c2cc(F)ccc2/C1=C\c1ccc([S+](C)[O-])cc1 [Sulindac] + Cc1nc(Nc2ncc(C(=O)Nc3c(C)cccc3Cl)s2)cc(N2CCN(CCO)CC2)n1 [Dasatinib] (partner 0.075 µM)
How it was run: as §1

[3] = compound: CC1=C(CC(=O)O)c2cc(F)ccc2/C1=C\c1ccc([S+](C)[O-])cc1 [Sulindac] + CC(=O)c1c(C)c2cnc(Nc3ccc(N4CCNCC4)cn3)nc2n(C2CCCC2)c1=O [Palbociclib] (partner 0.5 µM)
How it was run: as §1

[4] = compound: CN[C@@H]1C[C@H]2O[C@@](C)([C@@H]1OC)n1c3ccccc3c3c4c(c5c6ccccc6n2c5c31)C(=O)NC4 [Staurosporine] + NC(=O)Nc1cc(-c2cccc(F)c2)sc1C(=O)N[C@H]1CCCNC1 [AZD7762] (partner 0.2 µM)
How it was run: as §1

Cell Line: NCI-H661
- relative viability ([1]; first compound 0.005 µM): 0.641
- relative viability ([1]; first compound 0.01581 µM): 0.413
- relative viability ([1]; first compound 0.05 µM): 0.346
- relative viability ([1]; first compound 0.1581 µM): 0.201
- relative viability ([1]; first compound 0.5 µM): 0.166
- relative viability ([2]; first compound 0.08 µM): 0.966
- relative viability ([2]; first compound 0.253 µM): 0.842
- relative viability ([2]; first compound 0.8 µM): 0.759
- relative viability ([2]; first compound 2.53 µM): 0.807
- relative viability ([2]; first compound 8 µM): 1.08
- relative viability ([3]; first compound 0.08 µM): 0.405
- relative viability ([3]; first compound 0.253 µM): 0.433
- relative viability ([3]; first compound 0.8 µM): 0.458
- relative viability ([3]; first compound 2.53 µM): 0.376
- relative viability ([3]; first compound 8 µM): 0.449

Cell Line: NCI-H1563
- relative viability ([1]; first compound 0.005 µM): 0.65
- relative viability ([1]; first compound 0.01581 µM): 0.573
- relative viability ([1]; first compound 0.05 µM): 0.562
- relative viability ([1]; first compound 0.1581 µM): 0.523
- relative viability ([1]; first compound 0.5 µM): 0.488
- relative viability ([2]; first compound 0.08 µM): 0.414
- relative viability ([2]; first compound 0.253 µM): 0.451
- relative viability ([2]; first compound 0.8 µM): 0.476
- relative viability ([2]; first compound 2.53 µM): 0.418
- relative viability ([2]; first compound 8 µM): 0.497

Cell Line: NCI-H1623
- relative viability ([1]; first compound 0.005 µM): 0.517
- relative viability ([1]; first compound 0.01581 µM): 0.542
- relative viability ([1]; first compound 0.05 µM): 0.547
- relative viability ([1]; first compound 0.1581 µM): 0.441
- relative viability ([1]; first compound 0.5 µM): 0.304
- relative viability ([2]; first compound 0.08 µM): 0.552
- relative viability ([2]; first compound 0.253 µM): 0.444
- relative viability ([2]; first compound 0.8 µM): 0.525
- relative viability ([2]; first compound 2.53 µM): 0.501
- relative viability ([2]; first compound 8 µM): 0.519

Cell Line: NCI-H1648
- relative viability ([1]; first compound 0.005 µM): 0.245
- relative viability ([1]; first compound 0.01581 µM): 0.199
- relative viability ([1]; first compound 0.05 µM): 0.207
- relative viability ([1]; first compound 0.1581 µM): 0.293
- relative viability ([1]; first compound 0.5 µM): 0.314
- relative viability ([4]; first compound 0.005 µM): 0.611
- relative viability ([4]; first compound 0.01581 µM): 0.409
- relative viability ([4]; first compound 0.05 µM): 0.373
- relative viability ([4]; first compound 0.1581 µM): 0.412
- relative viability ([4]; first compound 0.5 µM): 0.388
- relative viability ([3]; first compound 0.08 µM): 0.275
- relative viability ([3]; first compound 0.253 µM): 0.268
- relative viability ([3]; first compound 2.53 µM): 0.242
- relative viability ([3]; first compound 8 µM): 0.282

Cell Line: NCI-H1650
- relative viability ([1]; first compound 0.005 µM): 0.357
- relative viability ([1]; first compound 0.01581 µM): 0.187
- relative viability ([1]; first compound 0.05 µM): 0.142
- relative viability ([1]; first compound 0.1581 µM): 0.168
- relative viability ([2]; first compound 0.08 µM): 0.304
- relative viability ([2]; first compound 0.253 µM): 0.353
- relative viability ([2]; first compound 2.53 µM): 0.321
- relative viability ([2]; first compound 8 µM): 0.341
- relative viability ([3]; first compound 0.08 µM): 0.271
- relative viability ([3]; first compound 0.253 µM): 0.331
- relative viability ([3]; first compound 0.8 µM): 0.341
- relative viability ([3]; first compound 2.53 µM): 0.346
- relative viability ([3]; first compound 8 µM): 0.315

Cell Line: NCI-H1703
- relative viability ([4]; first compound 0.005 µM): 0.121
- relative viability ([4]; first compound 0.01581 µM): 0.0954
- relative viability ([4]; first compound 0.05 µM): 0.107
- relative viability ([4]; first compound 0.1581 µM): 0.083
- relative viability ([4]; first compound 0.5 µM): 0.118

Cell Line: NCI-H2009
- relative viability ([1]; first compound 0.005 µM): 0.233
- relative viability ([1]; first compound 0.05 µM): 0.163
- relative viability ([1]; first compound 0.1581 µM): 0.123
- relative viability ([1]; first compound 0.5 µM): 0.082
- relative viability ([2]; first compound 0.08 µM): 0.297
- relative viability ([2]; first compound 0.253 µM): 0.322
- relative viability ([2]; first compound 0.8 µM): 0.305
- relative viability ([2]; first compound 2.53 µM): 0.256
- relative viability ([2]; first compound 8 µM): 0.344
- relative viability ([3]; first compound 0.08 µM): 0.176
- relative viability ([3]; first compound 0.253 µM): 0.209
- relative viability ([3]; first compound 0.8 µM): 0.234
- relative viability ([3]; first compound 2.53 µM): 0.17
- relative viability ([3]; first compound 8 µM): 0.242

Cell Line: NCI-H2023
- relative viability ([1]; first compound 0.005 µM): 0.185
- relative viability ([1]; first compound 0.01581 µM): 0.101
- relative viability ([1]; first compound 0.05 µM): 0.084
- relative viability ([1]; first compound 0.1581 µM): 0.0704
- relative viability ([1]; first compound 0.5 µM): 0.0498
- relative viability ([2]; first compound 0.08 µM): 0.91
- relative viability ([2]; first compound 0.253 µM): 0.726
- relative viability ([2]; first compound 0.8 µM): 0.424
- relative viability ([2]; first compound 2.53 µM): 0.567
- relative viability ([2]; first compound 8 µM): 0.617
- relative viability ([3]; first compound 0.08 µM): 0.387
- relative viability ([3]; first compound 0.253 µM): 0.429
- relative viability ([3]; first compound 0.8 µM): 0.362
- relative viability ([3]; first compound 2.53 µM): 0.415
- relative viability ([3]; first compound 8 µM): 0.454

Cell Line: NCI-H2228
- relative viability ([1]; first compound 0.005 µM): 0.689
- relative viability ([1]; first compound 0.01581 µM): 0.273
- relative viability ([1]; first compound 0.05 µM): 0.188
- relative viability ([1]; first compound 0.1581 µM): 0.0855
- relative viability ([1]; first compound 0.5 µM): 0.0902
- relative viability ([2]; first compound 0.08 µM): 0.592
- relative viability ([2]; first compound 0.253 µM): 0.596
- relative viability ([2]; first compound 0.8 µM): 0.375
- relative viability ([2]; first compound 2.53 µM): 0.549
- relative viability ([2]; first compound 8 µM): 0.526
- relative viability ([3]; first compound 0.08 µM): 0.876
- relative viability ([3]; first compound 0.253 µM): 0.967
- relative viability ([3]; first compound 0.8 µM): 0.487
- relative viability ([3]; first compound 2.53 µM): 0.864
- relative viability ([3]; first compound 8 µM): 0.831

Cell Line: SK-LU-1
- relative viability ([1]; first compound 0.005 µM): 0.214
- relative viability ([1]; first compound 0.01581 µM): 0.0957
- relative viability ([1]; first compound 0.1581 µM): 0.113
- relative viability ([1]; first compound 0.5 µM): 0.0858
- relative viability ([2]; first compound 0.08 µM): 0.157
- relative viability ([2]; first compound 0.253 µM): 0.162
- relative viability ([2]; first compound 0.8 µM): 0.168
- relative viability ([2]; first compound 2.53 µM): 0.143
- relative viability ([2]; first compound 8 µM): 0.202
- relative viability ([3]; first compound 0.08 µM): 0.387
- relative viability ([3]; first compound 0.253 µM): 0.417
- relative viability ([3]; first compound 0.8 µM): 0.464
- relative viability ([3]; first compound 2.53 µM): 0.369
- relative viability ([3]; first compound 8 µM): 0.408

Cell Line: SK-MES-1
- relative viability ([1]; first compound 0.005 µM): 0.202
- relative viability ([1]; first compound 0.01581 µM): 0.18
- relative viability ([1]; first compound 0.05 µM): 0.147
- relative viability ([1]; first compound 0.1581 µM): 0.134
- relative viability ([1]; first compound 0.5 µM): 0.106
- relative viability ([2]; first compound 0.08 µM): 0.336
- relative viability ([2]; first compound 0.253 µM): 0.367
- relative viability ([2]; first compound 0.8 µM): 0.366
- relative viability ([2]; first compound 2.53 µM): 0.352
- relative viability ([2]; first compound 8 µM): 0.331
- relative viability ([3]; first compound 0.08 µM): 0.313
- relative viability ([3]; first compound 0.253 µM): 0.364
- relative viability ([3]; first compound 0.8 µM): 0.353
- relative viability ([3]; first compound 2.53 µM): 0.373
- relative viability ([3]; first compound 8 µM): 0.315

Cell Line: SW 1573
- relative viability ([1]; first compound 0.005 µM): 0.161
- relative viability ([1]; first compound 0.01581 µM): 0.11
- relative viability ([1]; first compound 0.05 µM): 0.085
- relative viability ([1]; first compound 0.1581 µM): 0.0637
- relative viability ([1]; first compound 0.5 µM): 0.0578
- relative viability ([2]; first compound 0.08 µM): 0.392
- relative viability ([2]; first compound 0.253 µM): 0.691
- relative viability ([2]; first compound 2.53 µM): 0.574
- relative viability ([2]; first compound 8 µM): 0.497
- relative viability ([3]; first compound 0.08 µM): 0.451
- relative viability ([3]; first compound 0.253 µM): 0.406
- relative viability ([3]; first compound 0.8 µM): 0.362
- relative viability ([3]; first compound 2.53 µM): 0.336
- relative viability ([3]; first compound 8 µM): 0.464
